We go through three compounds from US20130041142A1, “HUMAN SWEET TASTE RECEPTOR-ACTING SWEET TASTE REGULATING SUBSTANCE TO SWEET TASTE SUBSTANCE” (priority 2009, published 2013).

Peptide text beside a SMILES is read from it.

The assay deals with T1, human sweet taste receptor (hT1R2+hT1R3) (Homo sapiens, UniProt Q7RTX0+Q8TE23).
T1 construct: includes all portions of respective subunits, that is, all regions of a transmembrane domain; pcDNA5/FRT construct co-transfected with pOG44
T1 sequence (Q8TE23 20-839): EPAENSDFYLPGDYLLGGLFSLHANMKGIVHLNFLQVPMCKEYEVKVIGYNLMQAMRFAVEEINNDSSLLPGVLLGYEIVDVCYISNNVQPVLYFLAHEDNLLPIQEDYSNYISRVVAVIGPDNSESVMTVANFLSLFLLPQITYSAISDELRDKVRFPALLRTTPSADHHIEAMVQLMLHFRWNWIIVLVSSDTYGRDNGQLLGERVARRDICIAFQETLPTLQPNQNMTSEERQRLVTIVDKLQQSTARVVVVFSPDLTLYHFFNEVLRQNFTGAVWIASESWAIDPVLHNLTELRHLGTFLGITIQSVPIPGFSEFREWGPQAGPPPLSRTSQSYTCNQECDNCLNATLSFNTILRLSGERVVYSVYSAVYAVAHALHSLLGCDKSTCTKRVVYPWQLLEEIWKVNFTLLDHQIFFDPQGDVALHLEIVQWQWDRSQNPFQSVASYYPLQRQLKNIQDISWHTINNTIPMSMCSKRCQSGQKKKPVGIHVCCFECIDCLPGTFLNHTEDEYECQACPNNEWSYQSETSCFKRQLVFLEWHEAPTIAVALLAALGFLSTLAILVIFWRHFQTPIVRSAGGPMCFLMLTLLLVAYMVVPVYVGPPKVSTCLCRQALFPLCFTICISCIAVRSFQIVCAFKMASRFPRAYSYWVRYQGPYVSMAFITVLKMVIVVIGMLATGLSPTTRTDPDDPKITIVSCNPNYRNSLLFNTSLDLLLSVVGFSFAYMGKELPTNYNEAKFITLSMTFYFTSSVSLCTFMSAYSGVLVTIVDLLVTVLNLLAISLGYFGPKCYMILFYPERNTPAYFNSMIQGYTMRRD
T1 sequence (Q7RTX0 21-852): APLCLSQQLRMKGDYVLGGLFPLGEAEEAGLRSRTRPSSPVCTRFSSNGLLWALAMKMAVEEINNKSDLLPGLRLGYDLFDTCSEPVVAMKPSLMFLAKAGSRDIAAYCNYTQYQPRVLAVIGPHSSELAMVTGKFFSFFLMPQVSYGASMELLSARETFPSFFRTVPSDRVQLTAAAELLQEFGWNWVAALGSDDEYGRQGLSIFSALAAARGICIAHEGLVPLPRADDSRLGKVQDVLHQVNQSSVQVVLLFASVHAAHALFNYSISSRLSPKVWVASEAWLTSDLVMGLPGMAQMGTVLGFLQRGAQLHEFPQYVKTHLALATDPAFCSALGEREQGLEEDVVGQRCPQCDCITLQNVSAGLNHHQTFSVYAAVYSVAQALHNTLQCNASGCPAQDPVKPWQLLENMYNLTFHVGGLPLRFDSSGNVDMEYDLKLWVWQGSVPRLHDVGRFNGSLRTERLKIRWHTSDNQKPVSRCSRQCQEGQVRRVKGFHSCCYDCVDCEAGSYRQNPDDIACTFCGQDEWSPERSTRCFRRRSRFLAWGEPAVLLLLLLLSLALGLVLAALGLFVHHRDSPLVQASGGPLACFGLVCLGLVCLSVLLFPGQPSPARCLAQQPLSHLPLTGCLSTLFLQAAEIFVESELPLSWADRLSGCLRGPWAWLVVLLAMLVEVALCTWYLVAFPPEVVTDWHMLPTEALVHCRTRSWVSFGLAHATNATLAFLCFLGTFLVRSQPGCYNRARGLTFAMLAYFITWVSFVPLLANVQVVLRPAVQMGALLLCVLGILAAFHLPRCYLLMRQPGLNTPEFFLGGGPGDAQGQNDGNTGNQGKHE
Put plainly: automated fluorescent calcium imaging (Fluo-4 AM, FlexStation 3) of sweet taste receptor-expressing cells. The assay is classed as cell-based. Conditions: for Change amount in fluorescent intensity (ΔF): 27° C., to 100 seconds. Here is the method:
After cultured at 37° C. for 24 hours, the medium was removed, and replaced with 50 μl of a HEPES buffer, and […] of a HEPES buffer containing a fluorescent calcium indicator (Fluo-4 AM attached to Molecular Devices, FLIPR Ca 4 Assay Kit) was further added. Then, this was incubated at 27° C. for 45 minutes to prepare a cell to be subjected to automated fluorescent imaging. […]
In the same manner as that described above, […] subjected to automated fluorescent imaging, so that a final concentration of sucrose became a concentration described in Table 2, a HEPES buffer containing conc. neohesperidin dihydrochalcone was further added so that a final concentration of neohesperidin dihydrochalcone became 2 v/v %, stimulation was performed at 27° C., a fluorescent reaction (excitation at 485 nm, fluorescence at 525 nm) from immediately after addition of the solution to after 100 seconds was measured by using FlexStation 3 (Molecular Devices), and a response of a sweet taste receptor-expressing cell when neohesperidin dihydrochalcone was added to sucrose was quantitated. The vertical axis of FIG. 3 is a maximum (ΔF) of a change amount in a fluorescent intensity between immediately after stimulation and after 100 seconds from stimulation, that is, a response intensity of a cell, and the horizontal axis indicates a sucrose concentration (mM) as expressed by logarithm.

In the case of `COC(=O)[C@H](Cc1ccccc1)NC(=O)[C@@H](N)CC(=O)O` [Aspartame, aspartame] (H-Asp-Phe-OMe), the “Change amount in fluorescent intensity (ΔF)” value (“Change amount … (ΔF)” below) is 6.568 (aspartame 0.167 mM alone), 12.578 (aspartame 0.333 mM alone), 33 (aspartame 0.667 mM alone) and 72.005 (aspartame 2 mM alone).

For `O=C1NS(=O)(=O)c2ccccc21` [Saccharin, saccharin], the “Change amount … (ΔF)” value is given as 7.609 (saccharin 0.167 mM alone), 22.936 (saccharin 0.333 mM alone), 56.59 (saccharin 0.667 mM alone) and 86.194 (saccharin 2 mM alone).

As for `OC[C@H]1O[C@@](CO)(O[C@H]2O[C@H](CO)[C@@H](O)[C@H](O)[C@H]2O)[C@@H](O)[C@@H]1O` [Sucrose, sucrose], the “Change amount … (ΔF)” value is, setting by setting: (sucrose 3.125 mM alone) 4.2; (sucrose 6.25 mM alone) 4.6; (sucrose 12.5 mM alone) 4.1; (sucrose 25 mM alone) 5.7; (sucrose 50 mM alone) 9.2; (sucrose 100 mM alone) 23.3. For the same compound, for the setting “sucrose 200 mM alone”, the “Change amount … (ΔF)” value was 34.9. Further, where the note is “sucrose alone”, the “concentration below which a response of a sweet taste receptor cell is not observed” value is on record as “around 50 mM”.
